Data as given in patent publication US10550143B2, “C,O-spiro aryl glycoside compounds, preparation therefor and use thereof” (SHANGHAI INSTITUTE OF MATERIA MEDICA, CHINESE ACADEMY OF …, priority 2015, dated 2020).

Key:
db/db mice = test: Chronic administration, random blood glucose in db/db mice; type: in vivo, mouse; conditions: for random blood glucose Pre: before administration; for Hypoglycemic rate % week 1 / Hypoglycemic rate % week 2 / Hypoglycemic rate % week 3 / Hypoglycemic rate % week 4: random blood glucose
Description: Oral gavage administrated, daily dose volume was 10 mL/kg, administered once daily. Administration time was 9: 00-10:00 daily, and the administration period was 5 weeks.
The random blood glucose of mice in the normal control group, model control group, test substance administration group and positive control group were determined on the 7th, 14th, 21st, 28th day (9: 00-10:00) every week after the first administration, and food was removed and after 6 hours of starvation, the fasting blood glucose in each group was measured. Free drinking during the hunger process. The rate of decrease of blood glucose was calculated according to the following formula: Average hypoglycemic rate %=(Blood glucose of model control group−Blood glucose of administration group)/Model control group×100%

hSGLT1 = biological target: T1, hSGLT1 (Homo sapiens, UniProt P13866); test: In vitro SGLT1 inhibition (hSGLT1 IC50 test); type: cell-based; conditions: read-out: IC50 ± SD SGLT1
T1 sequence (P13866 1-664): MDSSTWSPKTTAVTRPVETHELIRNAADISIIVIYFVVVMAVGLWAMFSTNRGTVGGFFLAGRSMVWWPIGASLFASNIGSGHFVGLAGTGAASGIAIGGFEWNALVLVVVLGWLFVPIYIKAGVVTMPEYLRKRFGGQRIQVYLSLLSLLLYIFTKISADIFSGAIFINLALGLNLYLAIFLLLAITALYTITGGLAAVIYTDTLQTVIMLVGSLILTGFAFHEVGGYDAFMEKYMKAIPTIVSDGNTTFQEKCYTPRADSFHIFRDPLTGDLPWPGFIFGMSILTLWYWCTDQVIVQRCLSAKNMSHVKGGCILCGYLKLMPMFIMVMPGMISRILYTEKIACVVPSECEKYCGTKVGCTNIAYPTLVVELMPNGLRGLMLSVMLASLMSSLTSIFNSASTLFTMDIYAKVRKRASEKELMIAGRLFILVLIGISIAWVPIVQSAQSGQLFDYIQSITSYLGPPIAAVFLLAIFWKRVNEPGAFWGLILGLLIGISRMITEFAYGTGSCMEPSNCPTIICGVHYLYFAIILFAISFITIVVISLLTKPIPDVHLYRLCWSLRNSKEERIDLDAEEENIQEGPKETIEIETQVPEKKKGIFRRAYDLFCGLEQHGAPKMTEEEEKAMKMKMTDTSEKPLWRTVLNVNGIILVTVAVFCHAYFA

[1] = Pharmacokinetics in rats after intragastric and intravenous administration; type: in vivo, rat
Description: Six healthy rats were randomly divided into two groups, three for each group. A28 was administered orally and intravenously, and the drug was grounded and dissolved in 0.5% MC. Fasted for 8 h before testing.
Three rats were intravenously administrated with 2 mg/kg of test compound A28, and 3 rats were orally administered with 10 mg/kg of test compound A28. Blood was collected from the orbital venous plexus of rats before administration, at 15 min, 30 min, 1 hour, 2 hours, 4 hours, 8 hours, 24 hours after administration, respectively. Blood sample were taken from three rats at each time point for each dose, and the plasma was immediately centrifuged.

[2] = rat, plasma, po, gavage 10 mg/kg

CCc1ccc(Cc2cc3c(cc2Cl)CO[C@]32O[C@H](C)[C@@H](O)[C@H](O)[C@H]2O)s1 [Example A28, (1S,3′R,4′S,5′S,6′R)-6′-methyl-6-((5-ethylthienyl)-2-methyl)-5-chloro-3′,4′,5′,6′-tetrahydro-3H-spiro[isobenzofuran-1,2′-pyran]-3′,4′,5′-triol]
random blood glucose week 1 (db/db mice; 0.3 mg/kg once daily oral): 16.9 ± 1.3 mmol/L | random blood glucose week 2 (db/db mice; 0.3 mg/kg once daily oral): 15.7 ± 1.3 mmol/L | random blood glucose week 3 (db/db mice; 0.3 mg/kg once daily oral): 16.7 ± 1.5 mmol/L | random blood glucose week 4 (db/db mice; 0.3 mg/kg once daily oral): 19.1 ± 1.6 mmol/L | random blood glucose Pre (db/db mice; 0.3 mg/kg once daily oral): 17.9 ± 1.4 mmol/L | random blood glucose week 1 (db/db mice; 1 mg/kg once daily oral): 16.1 ± 1.0 mmol/L | random blood glucose week 2 (db/db mice; 1 mg/kg once daily oral): 16.3 ± 1.2 mmol/L | random blood glucose week 3 (db/db mice; 1 mg/kg once daily oral): 15.9 ± 1.1 mmol/L | random blood glucose week 4 (db/db mice; 1 mg/kg once daily oral): 15.1 ± 1.4 mmol/L | random blood glucose Pre (db/db mice; 1 mg/kg once daily oral): 16.8 ± 1.2 mmol/L | random blood glucose week 1 (db/db mice; 3 mg/kg once daily oral): 14.7 ± 0.9 mmol/L | random blood glucose week 2 (db/db mice; 3 mg/kg once daily oral): 13.0 ± 0.8 mmol/L | random blood glucose week 3 (db/db mice; 3 mg/kg once daily oral): 12.4 ± 1.0 mmol/L | random blood glucose week 4 (db/db mice; 3 mg/kg once daily oral): 13.2 ± 0.9 mmol/L | random blood glucose Pre (db/db mice; 3 mg/kg once daily oral): 18.7 ± 1.2 mmol/L | random blood glucose week 1 (db/db mice; 10 mg/kg once daily oral): 12.9 ± 0.6 mmol/L | random blood glucose week 2 (db/db mice; 10 mg/kg once daily oral): 10.6 ± 0.5 mmol/L | random blood glucose week 3 (db/db mice; 10 mg/kg once daily oral): 9.1 ± 0.4 mmol/L | random blood glucose week 4 (db/db mice; 10 mg/kg once daily oral): 9.7 ± 0.7 mmol/L | random blood glucose Pre (db/db mice; 10 mg/kg once daily oral): 18.3 ± 1.6 mmol/L | Hypoglycemic rate % week 1 (db/db mice; 0.3 mg/kg once daily oral): 14.0% | Hypoglycemic rate % week 2 (db/db mice; 0.3 mg/kg once daily oral): 19.1% | Hypoglycemic rate % week 3 (db/db mice; 0.3 mg/kg once daily oral): 18.0% | Hypoglycemic rate % week 4 (db/db mice; 0.3 mg/kg once daily oral): 7.8% | Hypoglycemic rate % week 1 (db/db mice; 1 mg/kg once daily oral): 17.9% | Hypoglycemic rate % week 2 (db/db mice; 1 mg/kg once daily oral): 16.0% | Hypoglycemic rate % week 3 (db/db mice; 1 mg/kg once daily oral): 21.8% | Hypoglycemic rate % week 4 (db/db mice; 1 mg/kg once daily oral): 27.0% | Hypoglycemic rate % week 1 (db/db mice; 3 mg/kg once daily oral): 25.4% | Hypoglycemic rate % week 2 (db/db mice; 3 mg/kg once daily oral): 33.1% | Hypoglycemic rate % week 3 (db/db mice; 3 mg/kg once daily oral): 39.0% | Hypoglycemic rate % week 4 (db/db mice; 3 mg/kg once daily oral): 36.6% | Hypoglycemic rate % week 1 (db/db mice; 10 mg/kg once daily oral): 34.3% | Hypoglycemic rate % week 2 (db/db mice; 10 mg/kg once daily oral): 45.3% | Hypoglycemic rate % week 3 (db/db mice; 10 mg/kg once daily oral): 55.3% | Hypoglycemic rate % week 4 (db/db mice; 10 mg/kg once daily oral): 53.1% | IC50 (hSGLT1): 2060 ± 210 nM | AUC(0-t) ([1]; rat, plasma, intravenous, vein 2 mg/kg): 252 ng·h/mL | AUC(0-inf) ([1]; rat, plasma, iv, vein 2 mg/kg): 252 ng·h/mL | Cmax ([1]; rat, plasma, iv, vein 2 mg/kg): 201 ng/mL | MRT ([1]; rat, plasma, iv, vein 2 mg/kg): 0.982 h | Tmax ([1]; rat, plasma, iv, vein 2 mg/kg): 0.25 h | half-life ([1]; rat, plasma, iv, vein 2 mg/kg): 1.53 h | bioavailability ([1]; rat, plasma, oral, gavage 10 mg/kg vs vein 2 mg/kg, dose normalized, read-out: F (absolute bioavailability)): 107% | AUC(0-inf) [1, 2]: 1350 ng·h/mL | AUC(0-t) [1, 2]: 1350 ng·h/mL | Cmax [1, 2]: 273 ng/mL | MRT [1, 2]: 3.79 h | Tmax [1, 2]: 1.67 h | half-life [1, 2]: 1.69 h | CLz ([1]; vein 2 mg/kg): 134 mL/min/kg
